Data published in patent publication US5654427A, “Indolocarbazole derivatives to treat a pathological condition of the prostate” (Kyowa Hakko Kogyo Co., Ltd., priority 1995, dated 1997).
Like-named read-outs stand apart in the source and are kept apart here.

Key:
PC-3 = assay: growth inhibition of PC-3 prostate cancer cells (calcein fluorescence); type: cell-based; details: Homo sapiens, PC-3, 72 h, read-out: PC-3 IC50
Description: (§1) Throughout the experiment the Tsu-Pr1 and Du-Pro1 cells were maintained in RPMI 1640 medium (GIBCO) containing 10% fetal bovine serum (Hyclone), 2 mM glutamine, 100 U/ml penicillin, and 100 μg/ml streptomycin. The PC-3 cells were maintained in Ham's F12K medium (Irvine Scientific) containing 10% fetal bovine serum (Hyclone), 2 mM glutamine, 100 U/ml penicillin, and 100 μg/ml streptomycin. All cell lines were maintained at 37° C. in a humidified atmosphere containing 5% CO2. The DU-145 cells were maintained in minimal essential medium (Gibco), containing 10% fetal bovine serum (Hyclone), 2 mM glutamine, and no antibiotics.
(§2) Tests for growth inhibition by the candidate compounds were conducted by the following procedure. In each well of a 96-well plate (Falcon) were placed 2,500 cells in 0.1 ml of medium. The cultures were incubated overnight after which a 0.1 ml aliquot of culture medium was added to each well. […] Other control wells received medium without any K-252a derivative compounds. Incubation was continued for three days. On day three the number of cells in each well was measured using a calcein fluorescence assay (Bozyczko-Coyne et al. J. Neurosci. Meth. 50, 205-216 (1993)).
(§3) Calcein AM (Molecular Probes, Eugene, Oreg.), an analog of the viable dye fluorescein diacetate, is taken up by cells and cleaved intracellularly to fluorescent salts that are retained by intact membranes of viable cells. This method thus provides a reliable and quantitative measurement of cell survival. Calcein AM was diluted 2× in Dulbeccos phosphate buffered saline (D-PBS) to 2× the final assay concentration (6 μM) and 100 μl was added to culture wells containing 100 μl of medium. The plates were then incubated for 1 hour at 37° C. Cells were then washed 4 times with D-PBS to remove excess calcein not taken up by cells. The plate was read using a Millipore plate reading fluorimeter (Cytofluor 2350) at emission=485 nm and excitation=538 nm. After subtraction of blank values (wells containing medium but no cells), relative fluorescent values reflect a quantitative measurement of cell survival. […]

prostate glands = assay: inhibition of prostate growth in sexually immature mice (weight of prostate glands); type: in vivo; details: for Dorsal Prostate weight: TEPBS 9.8 ± 1.6; for Coagulating Glands weight: TEPBS 25.1 ± 1.6; for Seminal Vesicles weight: TEPBS 75.0 ± 5.0
Excerpt: (§4) The following animal model can be used to test the efficacy of a functional derivative for treatment of a proliferative prostate condition. Sexually immature male mice of 15-20 g each (Charles River Laboratories, Raleigh, N.C.) were used in the following in vivo study. The mice were allowed at least 3 days after purchase to acclimate before being used in any experiments.
(§5) Each test group contained 12 mice. […] At the end of the 21 day dosing period the mice were sacrificed and whole body blood, dorsal prostate, ventral prostate, coagulating glands, seminal vesicles, heart, liver, stomach, lung, kidneys and testes were collected separately and weighed.

DU-145 = assay: growth inhibition of DU-145 prostate cancer cells (calcein fluorescence); type: cell-based; details: Homo sapiens, DU-145, 72 h, read-out: DU-145 C50
Description: as §1, §2
(§6) Calcein AM (Molecular Probes, Eugene, Oreg.), an analog of the viable dye fluorescein diacetate, is taken up by cells and cleaved intracellularly to fluorescent salts that are retained by intact membranes of viable cells. This method thus provides a reliable and quantitative measurement of cell survival. Calcein AM was diluted 2× in Dulbeccos phosphate buffered saline (D-PBS) to 2× the final assay concentration (6 μM) and 100 μl was added to culture wells containing 100 μl of medium. The plates were then incubated for 1 hour at 37° C. Cells were then washed 4 times with D-PBS to remove excess calcein not taken up by cells. The plate was read using a Millipore plate reading fluorimeter (Cytofluor 2350) at emission=485 nm and excitation=538 nm. After subtraction of blank values (wells containing medium but no cells), relative fluorescent values reflect a quantitative measurement of cell survival.
(§7) The number of cells in the wells containing functional derivatives was compared to the number of cells in the control wells. The concentration which inhibited cell growth by 50% was calculated and is referred to as the "IC50 ".

phosphorylase kinase = details: background; cited from earlier work
protein kinase A = details: background; cited from earlier work
Tsu-Pr1 = assay: growth inhibition of Tsu-Pr1 prostate cancer cells (calcein fluorescence); type: cell-based; details: Homo sapiens, TSU-Pr1, 72 h, read-out: Tsu-Pr1 IC50
Description: as §1, §2, §6, §7

Du-Pro1 = assay: growth inhibition of Du-Pro1 prostate cancer cells (calcein fluorescence); type: cell-based; details: Homo sapiens, 72 h, read-out: Du-Pro1 IC50
Description: as §1, §2, §6, §7

[1] = body weight and weight of peripheral organs in sexually immature mice; details: for Body Weight: Table 4, TEPBS 31.5 ± 0.8; for Heart weight / Testes weight / Lung weight / Stomach weight / Kidney weight / Liver weight: Table 5; for Heart weight: TEPBS 171 ± 8.4; for Testes weight: TEPBS 202 ± 6; for Lung weight: TEPBS 230 ± 15.9; for Stomach weight: TEPBS 294 ± 22; for Kidney weight: TEPBS 576 ± 22; for Liver weight: TEPBS 1937 ± 75
Excerpt: as §4, §5

[2] = test system: myosin light-chain kinase; details: background; cited from earlier work
protein kinase C = details: background; cited from earlier work
protein kinase G = details: background; cited from earlier work
trkA = molecular target: T1, trkA (Rattus norvegicus, UniProt P35739); assay: inhibition of NGF-stimulated trk autophosphorylation (tyrosine phosphorylation) in PC12 cells, anti-phosphotyrosine Western blot; type: cell-based; details: 100 nM compound, NGF 50 ng/ml
T1 construct: are rat pheochromocytoma cells that bear trkA; host or cells: PC12 rat pheochromocytoma cells
Description: Candidate compounds for the inhibition of prostate cell proliferation were selected according to their ability to inhibit the tyrosine kinase activity associated with the trks.
PC12 cells (ATCC #CRL1721) are rat pheochromocytoma cells that bear trkA and differentiate into sympathetic neurons when treated with NGF. […] Cells were incubated at 37° C. in a humidified atmosphere of 10% CO2 and 90% air. […] The cells in each culture were disrupted and cell lysates were prepared by standard techniques known to those skilled in the art. Each lysate was incubated with anti-trk antibody whereby immune complexes were formed. […] The immune complexes were collected on Protein A-Sepharose beads, separated by SDS-polyacrylamide gel electrophoresis (SDS-PAGE), and transferred to polyvinylidene difluoride (PVDF) membranes (Millipore Corp., Bedford, Mass.), using techniques well known to those skilled in the art. The membranes were incubated with anti-phosphotyrosine antibody, which binds to the tyrosine phosphorylated trks, but not to the un-phosphorylated form of trks. Proteins bound to anti-phosphotyrosine antibody were visualized with enhanced chemiluminescence (ECL, Amersham), and are shown as dark "spots" in FIG. 1.
Measurement of the autophosphorylation of trk provides a good index of trk tyrosine kinase activity, and thereby of trk stimulation.
Inhibition was indicated by the absence of a spot migrating with the trk marker shown at the left side of the figure. Partial inhibition was indicated by a spot of reduced size.

[3] = test system: androgen independent human prostate cancer cell lines Tsu-Pr1, DuPro-1, PC-3 and DU-145; assay: growth inhibition of prostate cancer-derived cell lines, overall (calcein fluorescence); type: cell-based; details: Table 3
Description: as §1, §2, §3

[4] = Table 4, 1 mg/kg s.c. daily 21 days
[5] = Table 4, 10 mg/kg s.c. daily 21 days

T1 sequence (P35739 33-799): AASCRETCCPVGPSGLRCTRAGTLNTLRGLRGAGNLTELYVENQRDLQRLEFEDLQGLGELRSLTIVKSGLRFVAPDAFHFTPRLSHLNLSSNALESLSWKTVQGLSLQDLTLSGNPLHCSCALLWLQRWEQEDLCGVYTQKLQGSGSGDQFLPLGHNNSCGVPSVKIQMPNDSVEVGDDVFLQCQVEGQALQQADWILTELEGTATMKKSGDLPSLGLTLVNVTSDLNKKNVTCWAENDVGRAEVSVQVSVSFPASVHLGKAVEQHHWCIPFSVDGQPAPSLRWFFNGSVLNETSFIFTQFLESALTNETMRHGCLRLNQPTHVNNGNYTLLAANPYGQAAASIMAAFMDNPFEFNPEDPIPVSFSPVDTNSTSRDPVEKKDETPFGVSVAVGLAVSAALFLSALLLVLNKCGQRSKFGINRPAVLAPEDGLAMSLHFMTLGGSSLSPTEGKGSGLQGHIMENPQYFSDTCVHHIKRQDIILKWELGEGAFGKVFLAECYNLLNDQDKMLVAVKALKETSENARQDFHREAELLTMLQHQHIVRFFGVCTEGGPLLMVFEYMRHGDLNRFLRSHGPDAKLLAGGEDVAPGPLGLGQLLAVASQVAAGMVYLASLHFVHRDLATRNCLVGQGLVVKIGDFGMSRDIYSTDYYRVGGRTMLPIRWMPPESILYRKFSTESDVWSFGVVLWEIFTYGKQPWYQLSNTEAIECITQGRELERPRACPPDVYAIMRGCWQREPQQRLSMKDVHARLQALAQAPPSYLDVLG

SMILES	weight of the ventral prostates and seminal vesicles, in words (prostate glands; 1 mg/kg)	Dorsal Prostate weight (prostate glands; [4]) [mg]	Coagulating Glands weight (prostate glands; [4]) [mg]	Seminal Vesicles weight (prostate glands; [4]) [mg]	Dorsal Prostate weight (prostate glands; [5]) [mg]	Coagulating Glands weight (prostate glands; [5]) [mg]	Seminal Vesicles weight (prostate glands; [5]) [mg]	Body Weight ([1]; 1 mg/kg s.c. daily 21 days) [g]	Body Weight ([1]; 10 mg/kg s.c. daily 21 days) [g]	Heart weight ([1]; 1 mg/kg s.c. daily 21 days) [mg]	Testes weight ([1]; 1 mg/kg s.c. daily 21 days) [mg]	Lung weight ([1]; 1 mg/kg s.c. daily 21 days) [mg]	Stomach weight ([1]; 1 mg/kg s.c. daily 21 days) [mg]	Kidney weight ([1]; 1 mg/kg s.c. daily 21 days) [mg]	Liver weight ([1]; 1 mg/kg s.c. daily 21 days) [mg]	Heart weight ([1]; 10 mg/kg s.c. daily 21 days) [mg]	Testes weight ([1]; 10 mg/kg s.c. daily 21 days) [mg]	Lung weight ([1]; 10 mg/kg s.c. daily 21 days) [mg]	Stomach weight ([1]; 10 mg/kg s.c. daily 21 days) [mg]	Kidney weight ([1]; 10 mg/kg s.c. daily 21 days) [mg]	further results
COC(=O)C1(O)CC2OC1(C)n1c3ccccc3c3c4c(c5c6ccccc6n2c5c31)C(=O)NC4 (stereo not shown) [Compound I-1]	significantly reduced the weight of the ventral prostates and seminal vesicles	6.2 ± 1.3	18.2 ± 2.4	61.4 ± 4.1	6.7 ± 0.7	18.5 ± 1.4	66.4 ± 5.6	32.2 ± 0.6	30.0 ± 0.6	164 ± 6.4	216 ± 6	229 ± 8.02	288 ± 10	598 ± 19	1921 ± 81	152 ± 6.58	204 ± 11	263 ± 14.8	295 ± 30	550 ± 18	IC50 (PC-3): 3400 nM; effect of the higher dose, in words (prostate glands; 10 mg/kg versus 1 mg/kg): did not produce any greater effect; Ventral Prostate weight (prostate glands; mouse, in vivo, sc, 1 mg/kg): 7.6 ± 0.9 mg; Ventral Prostate weight (prostate glands; mouse, in vivo, sc, 10 mg/kg): 8.6 ± 0.8 mg; IC50 (DU-145): 1200 nM; inhibitor of phosphorylase kinase (phosphorylase kinase): inhibitor; inhibitor of protein kinase A (protein kinase A): inhibitor; IC50 (Tsu-Pr1): 210 nM; IC50 (Du-Pro1): 750 nM; Liver weight ([1]; 10 mg/kg s.c. daily 21 days): 1765 ± 50 mg; inhibitor of myosin light-chain kinase [2]: inhibitor; inhibitor of protein kinase C (protein kinase C): inhibitor; inhibitor of protein kinase G (protein kinase G): inhibitor
CC12OC(CC1(O)C(=O)NCCO)n1c3ccccc3c3c4c(c5c6ccccc6n2c5c31)CNC4=O (stereo not shown) [Compound I-12]	reduced the weight of the ventral prostates and seminal vesicles	4.7 ± 0.4	18.0 ± 2.4	54.3 ± 1.5	8.6 ± 1.1	17.6 ± 1.0	55.3 ± 2.2	32.8 ± 0.4	29.5 ± 1.0	179 ± 8.78	191 ± 12	244 ± 15.1	329 ± 28	591 ± 16	2120 ± 54	152 ± 9.60	187 ± 5	253 ± 20.9	270 ± 19	552 ± 29	IC50 (PC-3; 3 days incubation): 690 nM; weight of the dorsal prostate, in words (prostate glands; 1 mg/kg and 10 mg/kg): only reduced after treatment with 1 mg/kg; weight of the ventral prostates and seminal vesicles, in words (prostate glands; 10 mg/kg): reduced the weight of the ventral prostates and seminal vesicles; Ventral Prostate weight (prostate glands; Table 4, 1 mg/kg s.c. daily 21 days, TEPBS 11.3 ± 0.6): 6.2 ± 0.4 mg; Ventral Prostate weight (prostate glands; Table 4, 10 mg/kg s.c. daily 21 days, TEPBS 11.3 ± 0.6): 8.4 ± 0.8 mg; IC50 (DU-145; 3 days incubation): 750 nM; trk 100 nM (inhibition of phosphorylation) (trkA): +; IC50 (Tsu-Pr1; 3 days incubation): 38 nM; IC50 (Du-Pro1; 3 days incubation): 310 nM; Liver weight ([1]; 10 mg/kg s.c. daily 21 days): 1886 ± 84 mg; potency in inhibiting prostate cell line growth, in words [3]: most potent compounds in inhibiting growth in all four cell lines
